Results reported in US10421722B2, “Sulfur-containing compounds targeting vesicular acetylcholine transporter” (Washington University, priority 2016, dated 2019).
Where two headings read alike, the source gives them in different places.

What was measured:
[1] = target: σ2 receptor (Rattus norvegicus (Rat), UniProt Q5U3Y7); assay: σ2 receptor binding, [3H]DTG; conditions: for Ki: oxalate form, homogenates of rat liver; for Selectivity ratio VAChT/σ2: ratio of Ki values
Experimental: In vitro binding studies were performed to measure the affinities to the VAChT and σ1 and σ2 receptors. […]
(§1) Briefly, to measure the σ1 receptor binding affinity, we use guinea pig brain membrane homogenates (˜300 μg protein) tissues as the receptor resource and ˜5 nM [^3H](+)-Pentazocine (34.9 Ci/mmol, Perkin Elmer, Boston, Mass.) as the radioligand. The mixture was incubated in 96-well plates for 90 min at room temperature. Nonspecific binding was determined from samples containing 10 μM of nonradioactive Haloperidol. After 90 min, the mixture was transferred into a 96-well fiberglass filter plate (Millipore, Billerica, Mass.) presoaked with 100 μL of 50 mM Tris-HCl buffer at pH 8.0 for 60 min, followed by addition of 150 μL of ice-cold wash buffer (10 mM Tris-HCl, 150 mM NaCl, pH 7.4). The harvested samples were filtered rapidly and washed with 3×200 μL portions of ice-cold wash buffer, and the filterers were counted by a Wallac 1450 MicroBeta liquid scintillation counter (Perkin-Elmer, Boston, Mass.). […] The mixture was incubated for 120 min at room temperature. Nonspecific binding was determined from samples containing 10 μM of nonradioactive Haloperidol. All other procedures were similar to those described for the σ1 receptor binding assay above. Data from the competitive binding experiments were modeled using nonlinear regression analysis to determine the concentration that inhibits 50% of the specific binding of the radioligand. Competitive binding curves were best fit to a one-site fit and gave pseudo-Hill coefficients of 0.6-1.0. Ki values were calculated using the method of Cheng and Prusoff,^35 then presented as the mean±SEM.

[2] = target: human VAChT (Homo sapiens (Human), UniProt Q16572); assay: VAChT binding, competition against [3H]Vesamicol; conditions: oxalate form, expressed human VAChT, mean ± SEM
Experimental: (§2) In vitro binding studies were performed to measure the affinities to the VAChT and σ1 and σ2 receptors. VAChT binding was assayed using membrane homogenate from PC12 cells which overexpress human VAChT.^8 The σ1 and σ2 binding affinities were assayed in […], respectively.
The test compounds were assayed in increments of 10-fold from 0.1 to 10,000 nM concentration. The surfaces of containers were pre-coated with Sigmacote (Sigma-Aldrich, Mo.). Samples containing 200 μg postnuclear supernatant in 200 μL of 110 mM potassium tartrate, 20 mM HEPES (pH 7.4 with KOH), 1 mM dithiothreitol, and 0.02% sodium azide were incubated at 22° C. for 24 h. A volume of 90 μL was filtered in duplicate through GF/F glass fiber filters coated with polyethylenimine and washed. Filter-bound radioactivity was determined by liquid scintillation spectrometry for 10 min per sample. Averaged data were fitted by regression with a rectangular hyperbola to estimate Ki value. All the compounds were independently assayed at least two times.

[3] = target: σ1 receptor (Cavia porcellus (Guinea pig), UniProt Q60492); assay: σ1 receptor binding, [3H](+)-Pentazocine; conditions: for Ki: oxalate form, homogenates of guinea pig brain, mean ± SEM; for Selectivity ratio VAChT/σ1: ratio of Ki values
Experimental: as §2, §1

[4] = Table 1, read-out: Ki (nM) for VAChT
[5] = Table 2, read-out: Ki (nM) VAChT

Chain of human VAChT (Q16572 whole entry): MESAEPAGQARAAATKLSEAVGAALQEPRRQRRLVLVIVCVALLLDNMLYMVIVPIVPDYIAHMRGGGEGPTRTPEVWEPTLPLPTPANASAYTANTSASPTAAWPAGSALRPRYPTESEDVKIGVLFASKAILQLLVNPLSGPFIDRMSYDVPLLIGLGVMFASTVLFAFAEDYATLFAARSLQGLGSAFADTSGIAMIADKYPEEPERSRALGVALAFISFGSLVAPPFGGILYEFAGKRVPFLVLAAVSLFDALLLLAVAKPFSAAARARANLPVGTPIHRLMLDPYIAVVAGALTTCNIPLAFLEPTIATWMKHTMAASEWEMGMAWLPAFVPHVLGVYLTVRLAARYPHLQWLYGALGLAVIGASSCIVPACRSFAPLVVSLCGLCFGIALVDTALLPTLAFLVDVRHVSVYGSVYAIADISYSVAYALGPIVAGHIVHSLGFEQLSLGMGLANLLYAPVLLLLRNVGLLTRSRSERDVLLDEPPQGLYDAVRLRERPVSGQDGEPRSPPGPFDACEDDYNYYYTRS
Chain of σ1 receptor (Q60492 whole entry): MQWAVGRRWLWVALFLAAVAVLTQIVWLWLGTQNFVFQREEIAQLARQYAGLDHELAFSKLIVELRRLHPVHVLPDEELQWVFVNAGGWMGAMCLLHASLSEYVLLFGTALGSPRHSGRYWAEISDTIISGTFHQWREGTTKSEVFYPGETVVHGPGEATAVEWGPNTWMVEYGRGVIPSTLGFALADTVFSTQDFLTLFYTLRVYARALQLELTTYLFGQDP
Chain of σ2 receptor (Q5U3Y7 whole entry): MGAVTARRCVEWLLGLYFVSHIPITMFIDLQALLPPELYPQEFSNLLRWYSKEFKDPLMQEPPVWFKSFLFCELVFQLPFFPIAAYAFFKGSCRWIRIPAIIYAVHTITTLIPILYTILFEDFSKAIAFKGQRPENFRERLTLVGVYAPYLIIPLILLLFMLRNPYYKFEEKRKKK

## CSc1ccc(C(=O)C2CCN(C3Cc4ccccc4CC3O)CC2)cc1 (racemic) [Compound 3, (1-(3-Hydroxy-1,2,3,4-tetrahydronaphthalen-2-yl)piperidin-4-yl)(4-(methylthio)phenyl)methanone]
[1]
  Ki: > 1000 nM
  Selectivity ratio VAChT/σ2: >416
[2]; [4]
  Ki: 2.4 nM
[3]
  Ki: 17.2 ± 4 nM
  Selectivity ratio VAChT/σ1: 7.2

## C[S+]([O-])c1ccc(C(=O)C2CCN(C3Cc4ccccc4CC3O)CC2)cc1 (stereo not drawn) [Compound 4, (1-(3-Hydroxy-1,2,3,4-tetrahydronaphthalen-2-yl)piperidin-4-yl)(4-(methylsulfinyl)phenyl)methano-ne]
[2]; [4]
  Ki: 6.5 nM

## O=C(c1ccc(SCCCF)cc1)C1CCN([C@@H]2Cc3ccccc3C[C@H]2O)CC1 (single isomer, unassigned) [(+)-9b]
[1]
  Ki: > 1000 nM
  Selectivity ratio VAChT/σ2: >50
[2]; [5]
  Ki: 19.9 ± 9.2 nM
[3]
  Ki: 38.6 ± 7.1 nM
  Selectivity ratio VAChT/σ1: 1.9

## CSc1ccc(C(=O)C2CCN(C3Cc4ccccc4CC3O)CC2)cc1 (single isomer, unassigned; (-)) [(−)-3]
[1]
  Ki: > 1000 nM
  Selectivity ratio VAChT/σ2: >714
[2]; [5]
  Ki: 1.4 nM
[3]
  Ki: 19 ± 5.6 nM
  Selectivity ratio VAChT/σ1: 13.6

## O=C(c1ccc(SCCF)cc1)C1CCN(C2Cc3ccccc3CC2O)CC1 (racemic) [Compound 9a, (4-((2-Fluoroethyl)thio)phenyl)(1-(3-hydroxy-1,2,3,4-tetrahydronaphthalen-2-yl)piperidin-4-yl)methanone]
[1]
  Ki: > 1000 nM
  Selectivity ratio VAChT/σ2: >416
[2]; [4]
  Ki: 2.4 nM
[3]
  Ki: 16.7 ± 2.1 nM
  Selectivity ratio VAChT/σ1: 7.0

## O=C(c1ccc(SCCF)cc1)C1CCN(C2Cc3ccccc3CC2O)CC1 (single isomer, unassigned; (-)) [(−)-9a]
[1]
  Ki: > 1000 nM
  Selectivity ratio VAChT/σ2: >454
[2]; [5]
  Ki: 2.2 nM
[3]
  Ki: 30.8 ± 4.1 nM
  Selectivity ratio VAChT/σ1: 13.4

## O=C(c1ccc(SCCF)cc1)C1CCN([C@@H]2Cc3ccccc3C[C@H]2O)CC1 (single isomer, unassigned) [(+)-9a]
[1]
  Ki: > 1000 nM
  Selectivity ratio VAChT/σ2: >84
[2]; [5]
  Ki: 11.8 ± 2.7 nM
[3]
  Ki: 14.4 ± 2 nM
  Selectivity ratio VAChT/σ1: 1.2

## CNS(=O)(=O)c1ccc(C(=O)C2CCN(C3Cc4ccccc4CC3O)CC2)cc1 (stereo not drawn) [Compound 6a, 4-(1-(3-Hydroxy-1,2,3,4-tetrahydronaphthalen-2-yl)piperidine-4-carbonyl)-N-methylbenzenesulfon-amide]
[2]; [4]
  Ki: 6.3 nM

## O=C(c1ccc(SCCCF)cc1)C1CCN(C2Cc3ccccc3CC2O)CC1 (racemic) [Compound 9b, (4-((3-Fluoropropyl)thio)phenyl)(1-(3-hydroxy-1,2,3,4-tetrahydronaphthalen-2-yl)piperidin-4-yl)methanone]
[1]
  Ki: > 1000 nM
  Selectivity ratio VAChT/σ2: >434
[2]; [4]
  Ki: 2.3 nM
[3]
  Ki: 40.8 ± 4.1 nM
  Selectivity ratio VAChT/σ1: 17.7

## O=C(c1ccc(SCCCF)cc1)C1CCN(C2Cc3ccccc3CC2O)CC1 (single isomer, unassigned; (-)) [(−)-9b]
[1]
  Ki: > 1000 nM
  Selectivity ratio VAChT/σ2: >714
[2]; [5]
  Ki: 1.4 nM
[3]
  Ki: 4.1 ± 0.7 nM
  Selectivity ratio VAChT/σ1: 2.9

## O=C(c1ccc(S(=O)(=O)NCCF)cc1)C1CCN(C2Cc3ccccc3CC2O)CC1 (stereo not drawn) [Compound 6b, N-(2-fluoroethyl)-4-(1-(3-hydroxy-1,2,3,4-tetrahydronaphthalen-2-yl)piperidine-4-carbonyl)benzenesulfonamide]
[2]; [4]
  Ki: 13 nM

## O=C(c1ccc(SCCF)cc1)C1CCN([C@@H]2Cc3ccccc3C[C@H]2O)CC1 (single isomer, unassigned) [(−)-[^18F]9a]
[2]; Table 2, listed as (−)-[18F]9a, read-out: Ki (nM) VAChT
  Ki: 2.2 nM

## O=C(c1ccc(S(=O)(=O)CCCF)cc1)C1CCN(C2Cc3ccccc3CC2O)CC1 (stereo not drawn) [Compound 7, (4-((3-Fluoropropyl)sulfonyl)phenyl)(1-(3-hydroxy-1,2,3,4-tetrahydronaphthalen-2-yl)piperidin-4-yl)methanone]
[2]; [4]
  Ki: 12.8 ± 0.7 nM
